Assay results taken from the NIST ThermoML archive (doi:10.1021/acs.jced.9b00607).

Assay: wn = mass fraction of the nth substance listed
Conditions: 102 kPa, Liquid; for viscosity: Falling or rolling sphere viscometry; for mass density: Vibrating tube method

CN(CCO)CCO [N-methyldiethanolamine] + OCCO
Conditions | mass density [kg/m3] | viscosity [mPa·s]
283.15 K, w1 = 0.3 | 1101.8 | 64.36
283.15 K, w1 = 0.4 | 1095.1 | 80.69
283.15 K, w1 = 0.5 | 1088.1 | 99.66
283.15 K, w1 = 0.7 | 1073.3 | –
283.15 K, w1 = 0.8 | 1065.4 | 164.27
283.15 K, w1 = 0.9 | 1057.2 | 181.33
283.15 K, w1 = 1 | 1048 | 198.15
298.15 K, w1 = 0.3 | 1090.9 | 30.43
298.15 K, w1 = 0.4 | 1084.3 | 36.57
298.15 K, w1 = 0.5 | 1077.2 | 43.55
298.15 K, w1 = 0.7 | 1062.1 | 58.07
298.15 K, w1 = 0.8 | 1054 | 66.59
298.15 K, w1 = 0.9 | 1045.6 | 69.21
298.15 K, w1 = 1 | 1036.8 | 74.87
313.15 K, w1 = 0.3 | 1079.9 | 15.89
313.15 K, w1 = 0.4 | 1073.2 | 18.52
313.15 K, w1 = 0.5 | 1066 | 21.58
313.15 K, w1 = 0.7 | 1050.8 | 27.72
313.15 K, w1 = 0.8 | 1042.6 | 30.49
313.15 K, w1 = 0.9 | 1034.1 | 33.05
313.15 K, w1 = 1 | 1025.3 | 35.05
323.15 K, w1 = 0.3 | 1072.5 | 10.8
323.15 K, w1 = 0.4 | 1065.7 | 12.43
323.15 K, w1 = 0.5 | 1058.5 | 14.2
323.15 K, w1 = 0.7 | 1043.1 | 17.75
323.15 K, w1 = 0.8 | 1034.9 | 19.48
323.15 K, w1 = 0.9 | 1026.4 | 20.91
323.15 K, w1 = 1 | 1017.7 | 21.96
333.15 K, w1 = 0.3 | 1065.1 | 7.82
333.15 K, w1 = 0.4 | 1058.1 | 8.82
333.15 K, w1 = 0.5 | 1050.9 | 9.94
333.15 K, w1 = 0.7 | 1035.4 | 12.17
333.15 K, w1 = 0.8 | 1027.2 | 13.26
333.15 K, w1 = 0.9 | 1018.7 | 14.12
333.15 K, w1 = 1 | 1010 | 14.83
343.15 K, w1 = 0.3 | 1057.4 | 5.75
343.15 K, w1 = 0.4 | 1050.5 | 6.45
343.15 K, w1 = 0.5 | 1043.1 | 7.17
343.15 K, w1 = 0.7 | 1027.5 | 8.61
343.15 K, w1 = 0.8 | 1019.3 | 9.26
343.15 K, w1 = 0.9 | 1010.9 | 9.81
343.15 K, w1 = 1 | 1002.2 | 10.29
353.15 K, w1 = 0.3 | 1049.7 | 4.44
353.15 K, w1 = 0.4 | 1042.7 | 4.89
353.15 K, w1 = 0.5 | 1035.3 | 5.36
353.15 K, w1 = 0.7 | 1019.7 | 6.32
353.15 K, w1 = 0.8 | 1011.5 | 6.76
353.15 K, w1 = 0.9 | 1003 | 7.13
353.15 K, w1 = 1 | 994.5 | 7.4
